Tests used:
MAGL [1] = target: T1, MAGL (Mus musculus, UniProt O35678); experiment: Mouse brain proteomes from inhibitor treated mice (oral gavage, brain proteomes analyzed 4 h after administration); format: in vivo, mouse (C57Bl/6J); conditions: brain proteome 4 h after administration, read-out: % Inh 5 mg/kg MGLL (Mouse)
T1 construct: from tissue; host or cells: brain of wild-type C57Bl/6J mice
T1 sequence (O35678 1-303): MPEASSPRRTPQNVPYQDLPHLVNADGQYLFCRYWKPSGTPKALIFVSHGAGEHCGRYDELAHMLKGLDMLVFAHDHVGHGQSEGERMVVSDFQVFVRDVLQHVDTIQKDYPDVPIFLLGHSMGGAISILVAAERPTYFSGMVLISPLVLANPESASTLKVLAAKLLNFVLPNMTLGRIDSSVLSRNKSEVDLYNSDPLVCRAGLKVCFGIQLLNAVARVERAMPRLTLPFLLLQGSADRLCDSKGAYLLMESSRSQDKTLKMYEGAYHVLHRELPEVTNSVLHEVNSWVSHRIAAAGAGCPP
Description: Compounds are tested to assess their MAGL and serine hydrolase activity using the following in vitro and in vivo assays.
Preparation of Mouse Brain Proteomes from Inhibitor Treated Mice.
Inhibitors were administered to wild-type C57Bl/6J by oral gavage in a vehicle of polyethylene glycol. Each animal was sacrificed 4 h following administration and brain proteomes were prepared and analyzed according to previously established methods (See Niphakis, M. J., et al. (2011) ACS Chem. Neurosci. and Long, J. Z., et al. Nat. Chem. Biol. 5:37-44).

MGLL = target: T2, MGLL (Mus musculus, UniProt O35678); experiment: In vitro competitive activity-based protein profiling, mouse brain proteome; format: biochemical
T2 construct: Brain; from tissue; host or cells: mouse brain proteome
T2 sequence (O35678 1-303): T1 sequence (O35678 1-303)
Description: [Worded in the source for another species; this species is reported under the same test.] (§1) Proteomes (human prefrontal cortex or cell membrane fractions) (50 μL, 1.0 mg/mL total protein concentration) were preincubated with varying concentrations of inhibitors at 37° C. After 30 min, FP—Rh or HT-01 (1.0 μL, 50 μM in DMSO) was added and the mixture was incubated for another 30 min at room temperature. Reactions were quenched with SDS loading buffer (15 μL-4×) and run on SDS-PAGE.

ABHD6 = target: T3, ABHD6 (Mus musculus, UniProt Q8R2Y0); experiment: In vitro competitive activity-based protein profiling, mouse brain proteome, ABHD6; format: biochemical; conditions: mouse
T3 construct: Brain; from tissue; host or cells: mouse brain proteome
T3 sequence (Q8R2Y0 1-336): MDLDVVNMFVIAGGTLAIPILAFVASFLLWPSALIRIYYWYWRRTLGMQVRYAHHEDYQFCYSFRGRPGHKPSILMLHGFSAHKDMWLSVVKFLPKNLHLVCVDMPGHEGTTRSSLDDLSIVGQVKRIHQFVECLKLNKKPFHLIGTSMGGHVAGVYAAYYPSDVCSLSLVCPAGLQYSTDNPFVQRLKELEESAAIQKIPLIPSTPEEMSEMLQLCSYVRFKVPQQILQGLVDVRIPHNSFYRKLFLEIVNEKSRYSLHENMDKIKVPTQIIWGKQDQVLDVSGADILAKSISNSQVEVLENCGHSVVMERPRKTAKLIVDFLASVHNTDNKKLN
Description: [Worded in the source for another target; this target is reported under the same test.] as §1

MAGL [2] = target: T4, MAGL (Homo sapiens, UniProt Q99685); experiment: In vitro competitive activity-based protein profiling (gel-based, FP-Rh or HT-01 probe); format: biochemical; conditions: for IC50: PC3 proteome, read-out: IC50 MGLL PC3 (Human)
T4 construct: Proteomes (human prefrontal cortex or cell membrane fractions); from tissue
T4 sequence (Q99685 1-303): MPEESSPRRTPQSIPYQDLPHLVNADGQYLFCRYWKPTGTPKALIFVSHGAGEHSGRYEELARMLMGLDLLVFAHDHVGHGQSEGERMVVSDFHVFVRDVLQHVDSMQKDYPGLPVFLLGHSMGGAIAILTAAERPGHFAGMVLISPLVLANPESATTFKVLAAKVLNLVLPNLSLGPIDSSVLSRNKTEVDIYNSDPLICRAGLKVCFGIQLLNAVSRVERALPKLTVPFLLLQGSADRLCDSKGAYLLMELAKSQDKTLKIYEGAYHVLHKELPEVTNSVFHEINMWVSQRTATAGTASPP
Summary of the method: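 Readout is SDS-PAGE of probe-labelled proteome after FP-Rh or HT-01 (1.0 μL, 50 μM stock) labelling for 30 min at room temperature. Beforehand, inhibitors at varying concentrations were preincubated 30 min at 37° C with human prefrontal cortex or cell membrane fractions at 1.0 mg/mL total protein.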

SMILES	inhibition at 5 mg/kg (MAGL [1]) [%]	IC50 (MGLL) [nM]	IC50 (ABHD6) [nM]	IC50 (MAGL [2]) [nM]	% Inh MGLL PFC (Human, μM) (MAGL [2]; PFC (prefrontal cortex) proteome)
O=C(OC(C(F)(F)F)C(F)(F)F)N1CCC2(CCN(Cc3ccc(Cl)cc3N3CCC(F)CC3)CC2)C1 [Example 28, 1,1,1,3,3,3-Hexafluoropropan-2-yl 8-(4-chloro-2-(4-fluoropiperidin-1-yl)benzyl)-2,8-diazaspiro[4.5]decane-2-carboxylate]	≥ 75	< 100	> 1000	–	–
CC(C)(C#Cc1c(F)cccc1CN1CCCC12CCN(C(=O)OC(C(F)(F)F)C(F)(F)F)CC2)C(=O)O [Example 147, 4-{2-Fluoro-6-[(8-{[(1,1,1,3,3,3-hexafluoropropan-2-yl)oxy]carbonyl}-1,8-diazaspiro[4.5]decan-1-yl)methyl]phenyl]-2,2-dimethylbut-3-ynoic acid]	≥ 75	–	–	< 100	### (### is ≥ 75%)
O=C(O)CN1CCC2(CCN(c3cc(C(F)(F)F)ccc3CN3CCCC34CCN(C(=O)OC(C(F)(F)F)C(F)(F)F)CC4)CC2)C1 [Example 153, 2-(8-(2-((8-(((1,1,1,3,3,3-Hexafluoropropan-2-yl)oxy)carbonyl)-1,8-diazaspiro[4.5]decan-1-yl)methyl)-5-(trifluoromethyl)phenyl)-2,8-diazaspiro[4.5]decan-2-yl)acetic acid]	≤ 25	–	–	< 100	–
O=C(O)CN1CCC2(CC1)CCN(c1cc(C(F)(F)F)ccc1CN1CCCC13CCN(C(=O)OC(C(F)(F)F)C(F)(F)F)CC3)C2 [Example 154, 2-(2-(2-((8-(((1,1,1,3,3,3-Hexafluoropropan-2-yl)oxy)carbonyl)-1,8-diazaspiro[4.5]decan-1-yl)methyl)-5-(trifluoromethvl)phenyl)-2,8-diazaspiro[4.5]decan-8-yl)acetic acid]	≤ 25	–	–	< 100	–
O=C(O)CN1CC2CN(c3cc(C(F)(F)F)ccc3CN3CCCC34CCN(C(=O)OC(C(F)(F)F)C(F)(F)F)CC4)CC2C1 (centres unmarked) [Example 155]	≤ 25	–	–	< 100	–
O=C(O)CN1CCC2(CC1)CN(c1cc(C(F)(F)F)ccc1CN1CCCC13CCN(C(=O)OC(C(F)(F)F)C(F)(F)F)CC3)C2 [Example 156, 2-(2-(2-((8-(((1,1,1,3,3,3-Hexafluoropropan-2-yl)oxy)carbonyl)-1,8-diazaspiro[4.5]decan-1-yl)methyl)-5-(trifluoromethyl)phenyl)-2,7-diazaspiro[3.5]nonan-7-yl)acetic acid]	≤ 25	–	–	< 100	–
O=C(O)CN1CC2(CCN(c3cc(C(F)(F)F)ccc3CN3CCCC34CCN(C(=O)OC(C(F)(F)F)C(F)(F)F)CC4)CC2)C1 [Example 157, 2-(7-(2-((8-(((1,1,1,3,3,3-Hexafluoropropan-2-yl)oxy)carbonyl)-1,8-diazaspiro[4.5]decan-1-yl)methyl)-5-(trifluoromethyl)phenyl)-2,7-diazaspiro[3.5]nonan-2-yl)acetic acid]	≤ 25	–	–	< 100	–
O=C(O)CN1CC2(CCN(c3cc(CN4CCCC45CCN(C(=O)OC(C(F)(F)F)C(F)(F)F)CC5)cc(C(F)(F)F)c3)CC2)C1 [Example 158, 2-(7-(3-((8-(((1,1,1,3,3,3-Hexafluoropropan-2-yl)oxy)carbonyl)-1,8-diazaspiro[4.5]decan-1-yl)methyl)-5-(trifluoromethyl)phenyl)-2,7-diazaspiro[3.5]nonan-2-yl)acetic acid]	≤ 25	–	–	< 100	–
O=C(O)C1CCN(c2c(Cl)cccc2CN2CCC3(CC2)CCN(C(=O)OC(C(F)(F)F)C(F)(F)F)C3)CC1 [Example 218, 1-(2-Chloro-6-((2-(((1,1,1,3,3,3-hexafluoropropan-2-yl)oxy)carbonyl)-2,8-diazaspiro[4.5]decan-8-yl)methyl)phenyl) piperidine-4-carboxylic acid]	≥ 75	–	–	< 100	–

Results, then the compound that gave them:

inhibition at 5 mg/kg (MAGL [1]) [%]	IC50 (MGLL) [nM]	IC50 (ABHD6) [nM]	IC50 (MAGL [2]) [nM]	% Inh MGLL PFC (Human, μM) (MAGL [2]; PFC (prefrontal cortex) proteome)	SMILES
≥ 75	< 100	> 1000	–	–	CC(=O)N1CCC2(CC1)CCN(c1cc(Cl)ccc1CN1CCN(C(=O)OC(C(F)(F)F)C(F)(F)F)CC1)C2 [Example 29, 1,1,1,3,3,3-Hexafluoropropan-2-yl 4-(2-(8-acetyl-2,8-diazaspiro[4.5]decan-2-yl)-4-chlorobenzyl)piperazine-1-carboxylate]
≤ 25	< 100	> 1000	–	–	CS(=O)(=O)N1CCC2(CCN(c3cc(Cl)ccc3CN3CCN(C(=O)OC(C(F)(F)F)C(F)(F)F)CC3)C2)CC1 [Example 30, 1,1,1,3,3,3-Hexafluoropropan-2-yl 4-(4-chloro-2-(8-(methylsulfonyl)-2,8-diazaspiro[4.5]decan-2-yl)benzyl)piperazine-1-carboxylate]
≥ 75	< 100	> 1000	–	–	O=C(OC(C(F)(F)F)C(F)(F)F)N1CCC2(CC1)CN(Cc1c(N3CC4COCC4C3)cccc1C(F)(F)F)C2 (centres unmarked) [Example 32, 1,1,1,3,3,3-Hexafluoropropan-2-yl 2-(2-(tetrahydro-1H-furo[3,4-c]pyrrol-5(3H)-yl)-6-(trifluoromethyl)benzyl)-2,7-diazaspiro[3.5]nonane-7-carboxylate]
≥ 75	< 100	100 to 1000	–	–	O=C(OC(C(F)(F)F)C(F)(F)F)N1CCC2(CC1)CN(Cc1ccc(Cl)cc1N1CCOCC1)C2 [Example 39, 1,1,1,3,3,3-Hexafluoropropan-2-yl 2-(4-chloro-2-morpholinobenzyl)-2,7-diazaspiro[3.5]nonane-7-carboxylate]
≥ 75	< 100	> 1000	–	–	O=C(OC(C(F)(F)F)C(F)(F)F)N1CCC2(CC1)CN(Cc1c(N3CCCCC3)cccc1C(F)(F)F)C2 [Example 41, 1,1,1,3,3,3-Hexafluoropropan-2-yl 2-(2-(piperidin-1-yl)-6-(trifluoromethyl)benzyl)-2,7-diazaspiro[3.5]nonane-7-carboxylate]
≥ 75	< 100	< 100	–	–	CS(=O)(=O)N1CCN(c2cccc(Cl)c2CN2CC3(CCN(C(=O)OC(C(F)(F)F)C(F)(F)F)CC3)C2)CC1 [Example 44, 1,1,1,3,3,3-Hexafluoropropan-2-yl 2-(2-chloro-6-(4-(methylsulfonyl)piperazin-1-yl)benzyl)-2,7-diazaspiro[3.5]nonane-7-carboxylate]
≥ 75	< 100	< 100	–	–	O=C(OC(C(F)(F)F)C(F)(F)F)N1CCC2(CC1)CN(Cc1c(Cl)cccc1N1CCCCC1)C2 [Example 45, 1,1,1,3,3,3-Hexafluoropropan-2-yl 2-(2-chloro-6-(piperidin-1-yl)benzyl)-2,7-diazaspiro[3.5]nonane-7-carboxylate]
≥ 75	< 100	< 100	–	–	O=C(OC(C(F)(F)F)C(F)(F)F)N1CCC2(CC1)CN(Cc1c(Cl)cccc1N1CCOCC1)C2 [Example 46, 1,1,1,3,3,3-Hexafluoropropan-2-yl 2-(2-chloro-6-morpholinobenzyl)-2,7-diazaspiro[3.5]nonane-7-carboxylate]
≥ 75	< 100	< 100	–	–	CC(=O)N1CCN(c2cccc(Cl)c2CN2CC3(CCN(C(=O)OC(C(F)(F)F)C(F)(F)F)CC3)C2)CC1 [Example 49, 1,1,1,3,3,3-Hexafluoropropan-2-yl 2-(2-(4-acetylpiperazin-1-yl)-6-chlorobenzyl)-2,7-diazaspiro[3.5]nonane-7-carboxylate]
